The assay has as its target interaction of human SOS1 (SOS1) with human K-RasG12C (Homo sapiens (Human), UniProt Q07889). The assay is described as follows: Biochemical assay: hK-RasG12C interaction assay with hSOS1 (HTRF). It is filed as binding. To be noted: GST-hK-RasG12C with His-hSOS1, 60 min incubation at 20° C., mean, read-out: K-RasG12C - SOS interaction assay IC50 (mean). The procedure: Biochemical Assay: hK-RasG12C Interaction Assay with hSOS1 This assay quantifies the equilibrium interaction of human SOS1 (SOS1) with human K-Ras^G12^C (K-RasG12C). Detection of the interaction is achieved by measuring homogenous time-resolved fluorescence resonance energy transfer (HTRF) from antiGST-Europium (FRET donor) bound to GST-K-RasG12C to anti-6His-XL665 bound to His-tagged hSOS1 (FRET-acceptor). The assay buffer containes 5 mM HEPES pH 7.4 (Applichem), 150 mM NaCl (Sigma), […] (Promega), 1 mM DTT (Thermofisher), 0.05% BSA Fraction V, pH 7.0, (ICN Biomedicals), 0.0025% (v/v) Igepal (Sigma) and 100 mM KF (FLUKA). The expression and purification of N-terminally GST-tagged human K-RasG12C (termed GST-hK-RasG12C) and N-terminally His-tagged human SOS1 (termed His10-hSOS1) is described in WO 2019/201848, page 220 line 12-34 and page 222, line 13-25 (expression) and page 222, line 26 to page 223, line 17 (purification). Concentrations of protein batches used are optimized to be within the linear range of the HTRF signal. A Ras working solution is prepared in assay buffer containing typically 10 nM GST-hK-RasG12C and 2 nM antiGST-Eu(K) (Cisbio, France). A SOS1 working solution is prepared in assay buffer containing typically 20 nM His-hSOS1 and 10 nM anti-6His-XL665 (Cisbio, France). An inhibitor control solution is prepared in assay buffer containing nM anti-6His-XL665 without SOS1. Fifty nl of a 100-fold concentrated solution of the test compound in DMSO are transferred into a black microtiter test plate (384 or 1536, Greiner Bio-One, Germany). For this, either a Hummingbird liquid handler (Digilab, MA, USA) or an Echo acoustic system (Labcyte, CA, USA) is used. All steps of the assay are performed at 20° C. A volume of 2.5 μl of the Ras working solution is added to all wells of the test plate using a Multidrop dispenser (Thermo Labsystems). After 2 min preincubation, 2.5 μl of the SOS1 working solution are added to all wells except for those wells at the side of the test plate that are subsequently filled with 2.5 μl of the inhibitor control solution. After 60 min incubation the fluorescence is measured with a Pherastar (BMG, Germany) using the HTRF module (excitation 337 nm, emission 1: 620 nm, emission 2: 665 nm). The ratiometric data (emission 2 divided by emission 1) are normalized using the controls (DMSO=0% inhibition, inhibition control wells with inhibitor control solution=100% inhibition). Compounds are tested in duplicates at up to 11 concentrations (for 20 μM, 5,7 μM, 1,6 μM, 0.47 μM, 0.13 μM, 38 nM, 11 nM, 3.1 nM, 0.89 nM, 0.25 nM and 0.073 nM). IC50 values are calculated by 4-Parameter fitting using a commercial software package (Genedata Screener, Switzerland).
Sequence of interaction of human SOS1 (SOS1) with human K-RasG12C (Q07889 564-1049 limits assumed): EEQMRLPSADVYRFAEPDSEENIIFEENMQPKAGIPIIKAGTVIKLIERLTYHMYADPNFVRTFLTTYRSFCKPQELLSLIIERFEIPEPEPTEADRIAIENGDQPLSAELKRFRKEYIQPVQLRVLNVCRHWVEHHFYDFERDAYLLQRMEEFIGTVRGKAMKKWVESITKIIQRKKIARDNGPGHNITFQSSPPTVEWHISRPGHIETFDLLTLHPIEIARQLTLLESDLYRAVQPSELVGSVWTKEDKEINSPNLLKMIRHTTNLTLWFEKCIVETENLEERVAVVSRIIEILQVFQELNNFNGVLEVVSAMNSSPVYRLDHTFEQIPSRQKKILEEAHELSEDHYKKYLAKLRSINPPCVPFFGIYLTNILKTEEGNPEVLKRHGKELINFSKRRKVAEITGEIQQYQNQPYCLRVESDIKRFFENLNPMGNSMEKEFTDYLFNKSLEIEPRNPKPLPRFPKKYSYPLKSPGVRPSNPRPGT
On to `CCP(C)(=O)c1cc2c(N[C@H](C)c3cccc(C(F)F)c3F)nc(C)nc2cn1` (single isomer, unassigned) [Example 118], for which the IC50 came out at 56.5 nM. In the case of `CCP(=O)(CC)c1cc2c(N[C@H](C)c3cccc(C(F)(F)CO)c3F)nc(C)nc2cn1` [Example 64, 2-{3-[(1R)-1-{[6-(diethylphosphoryl)-2-methylpyrido[3,4-d]pyrimidin-4-yl]amino}ethyl]-2-fluorophenyl}-2,2-difluoroethan-1-ol], the concentration for half-maximal inhibition (IC50) is 17.8 nM.

As for `CC(=O)N1CCP(=O)(c2cc3c(N[C@H](C)c4cccc(C(F)(F)C(=O)N(C)C)c4F)nc(C)nc3cn2)CC1` [Example 45, 2-{3-[(1R)-1-{[6-(1-acetyl-4-oxo-1,4lambda^5-azaphosphinan-4-yl)-2-methylpyrido[3,4-d]pyrimidin-4-yl]amino}ethyl]-2-fluorophenyl}-2,2-difluoro-N,N-dimethylacetamide], the IC50 amounted to 17 nM. `Cc1nc(N[C@H](C)c2cccc(C(F)(F)F)c2C)c2cc(P3(=O)CCN(C(=O)N(C)C)CC3)ncc2n1` [Example 188]: the half-maximal inhibitory concentration (IC50) turned out to be 6.34 nM. As to `Cc1nc(N[C@H](C)c2cccc(C(F)(F)C(O)C(C)C)c2F)c2cc(P(C)(C)=O)ncc2n1` (single isomer, unassigned) [Example 66, (2R*)-1-{3-[(1R)-1-{[6-(dimethylphosphoryl)-2-methylpyrido[3,4-d]pyrimidin-4-yl]amino}ethyl]-2-fluorophenyl}-1,1-difluoro-3-methylbutan-2-ol], the IC50 came out at 25.1 nM. The same measure for `Cc1nc(N[C@H](C)c2cccc(C(F)(F)C(C)(C)O)c2F)c2cc(P(C)(=O)C(C)C)ncc2n1` (stereo partly drawn) [Example 70, 1,1-difluoro-1-{2-fluoro-3-[(1R)-1-({2-methyl-6-[methyl(propan-2-yl)phosphoryl]pyrido[3,4-d]pyrimidin-4-yl}amino)ethyl]phenyl}-2-methylpropan-2-ol]: 27.6 nM; for `Cc1nc(N[C@H](C)c2cccc(C(F)(F)F)c2C)c2cc(P3(=O)CCCC3)ncc2n1` [Example 99, 1-[2-methyl-4-{{(1R)-1-[2-methyl-3-(trifluoromethyl)phenyl]ethyl}amino)pyrido[3,4-d]pyrimidin-6-yl]-1lambda^5-phospholan-1-one]: 32.1 nM. In the case of `CC(=O)N1CCP(=O)(c2cc3c(N[C@H](C)c4cccc(C(F)(F)F)c4C)nc(C)nc3nc2C)CC1` [Example 145, 1-acetyl-4-[2,7-dimethyl-4-({(1R)-1-[2-methyl-3-(trifluoromethyl)phenyl]ethyl}amino)pyrido[2,3-d]pyrimidin-6-yl]-1,4lambda^5-azaphosphinan-4-one], the IC50 came to 4.35 nM. Regarding `CC(=O)N1CCP(=O)(c2cc3c(N[C@H](C)c4cccc(C(F)(F)CO)c4F)nc(C)nc3cn2)CC1` [Example 42, 1-acetyl-4-[4-({(1R)-1-[3-(1,1-difluoro-2-hydroxyethyl)-2-fluorophenyl]ethyl}amino)-2-methylpyrido[3,4-d]pyrimidin-6-yl]-1,4lambda^5-azaphosphinan-4-one], the IC50 stood at 4.87 nM.

As to `CCP(C)(=O)c1cc2c(N[C@H](C)c3cccc(C(F)(F)C(C)(C)O)c3F)nc(C)nc2cn1` (single isomer, unassigned) [Example 68], the IC50 came to 28.2 nM. The same measure for `CC(=O)N1CCP(=O)(c2cc3c(N[C@H](C)c4cccc(C(F)(F)C(C)(C)O)c4F)nc(C)nc3cn2)CC1` [Example 193]: 4.1 nM.

As for `Cc1nc(N[C@H](C)c2cccc(C(F)(F)F)c2)c2cc(P3(=O)CCN(C(=O)C(F)F)CC3)ncc2n1` [Example 205], the IC50 is 9.64 nM. On to `CC(=O)N1CCP(=O)(c2cc3c(N[C@H](C)c4cccc(C(F)(F)C(N)=O)c4F)nc(C)nc3cn2)CC1` [Example 46, 2-{3-[(1R)-1-{[6-(1-acetyl-4-oxo-1,4lambda^5-azaphosphinan-4-yl)-2-methylpyrido[3,4-d]pyrimidin-4-yl]amino}ethyl]-2-fluorophenyl}-2,2-difluoroacetamide], for which the IC50 was 6.1 nM. On to `CC(=O)N1CCP(=O)(c2cc3c(N[C@H](C)c4cccc(C(F)(F)CN(C(C)=O)C5CC5)c4F)nc(C)nc3cn2)CC1` [Example 202], for which the IC50 stood at 3.89 nM.

Take `Cc1nc(N[C@H](C)c2cccc(C(F)F)c2F)c2cc(P(C)(=O)C(C)C)ncc2n1` (single isomer, unassigned) [Example 116]: the IC50 is 57.6 nM. `CCP(C)(=O)c1cc2c(N[C@H](C)c3cccc(C(F)(F)C(C)O)c3F)nc(C)nc2cn1` (single isomer, unassigned) [Example 75, (2R*)-1-{3-[(1R)-1-{{6-[ethyl(methyl)phosphoryl]-2-methylpyrido[3,4-d]pyrimidin-4-yl}amino)ethyl]-2-fluorophenyl}-1,1-difluoropropan-2-ol]: the IC50 was determined as 15.3 nM. Take `Cc1nc(N[C@H](C)c2cccc(C(F)(F)C(C)(C)O)c2F)c2cc(P(C)(C)=O)cnc2n1` [Example 14, 1-{3-[(1R)-1-{[6-(dimethylphosphoryl)-2-methylpyrido[2,3-d]pyrimidin-4-yl]amino}ethyl]-2-fluorophenyl}-1,1-difluoro-2-methylpropan-2-ol]: the IC50 was found to be 9.78 nM.

`Cc1nc(N[C@H](C)c2cccc(C(F)(F)CNS(C)(=O)=O)c2F)c2cc(P3(=O)CCN(C(=O)C4CC4)CC3)ncc2n1` [Example 179, N-(2-{3-[(1R)-1-({6-[1-(cyclopropanecarbonyl)-4-oxo-1,4lambda^5-azaphosphinan-4-yl]-2-methylpyrido[3,4-d]pyrimidin-4-yl}amino)ethyl]-2-fluorophenyl}-2,2-difluoroethyl)methanesulfonamide]: the 50% inhibitory concentration (IC50) was determined as 3.68 nM. As to `Cc1nc(N[C@H](C)c2cccc(C(F)(F)C(C)(C)O)c2F)c2cc(P3(=O)CCCC3)c(C)nc2n1` [Example 20, 1-[4-({(1R)-1-[3-(1,1-difluoro-2-hydroxy-2-methylpropyl)-2-fluorophenyl]ethyl}amino)-2,7-dimethylpyrido[2,3-d]pyrimidin-6-yl]-1lambda^5-phospholan-1-one], the IC50 came out at 7.21 nM. As for `Cc1nc(N[C@H](C)c2cccc(C(F)(F)F)c2C)c2cc(P3(=O)CCN(C(=O)CC#N)CC3)ncc2n1` [Example 162, 3-{4-[2-methyl-4-({(1R)-1-[2-methyl-3-(trifluoromethyl)phenyl]ethyl}amino)pyrido[3,4-d]pyrimidin-6-yl]-4-oxo-1,4lambda^5-azaphosphinan-1-yl}-3-oxopropanenitrile], the IC50 is 272 nM. With `Cc1nc(N[C@H](C)c2cccc(C(F)(F)CO)c2F)c2cc(P3(=O)CCCC3)ncc2n1` [Example 63, 1-[4-{{(1R)-1-[3-(1,1-difluoro-2-hydroxyethyl)-2-fluorophenyl]ethyl}amino)-2-methylpyrido[3,4-d]pyrimidin-6-yl]-1lambda^5-phospholan-1-one], the half-inhibitory concentration (IC50) came out at 10.1 nM. For the molecule `CCP(=O)(CC)c1cc2c(N[C@H](C)c3cccc(C(F)(F)C(C)(C)O)c3F)nc(C)nc2cn1` [Example 123, 1-{3-[(1R)-1-{[6-(diethylphosphoryl)-2-methylpyrido[3,4-d]pyrimidin-4-yl]amino}ethyl]-2-fluorophenyl}-1,1-difluoro-2-methylpropan-2-ol], the IC50 came to 59 nM. For the molecule `Cc1nc(N[C@H](C)c2cccc(C(F)(F)C(=O)N(C)C)c2F)c2cc(P(C)(C)=O)ncc2n1` [Example 50, 2-{3-[(1R)-1-{[6-(dimethylphosphoryl)-2-methylpyrido[3,4-d]pyrimidin-4-yl]amino}ethyl]-2-fluorophenyl}-2,2-difluoro-N,N-dimethylacetamide], the IC50 turned out to be 156 nM. The same measure for `Cc1nc(N[C@H](C)c2cccc(C(F)(F)F)c2C)c2cc(P(=O)(C(C)C)C(C)C)c(C)nc2n1` [Example 102, 6-[di(propan-2-yl)phosphoryl]-2,7-dimethyl-N-{(1R)-1-[2-methyl-3-(trifluoromethyl)phenyl]ethyl}pyrido[2,3-d]pyrimidin-4-amine]: 80.2 nM.

The values above are taken from patent US20240247015A1, “PHOSPHORUS DERIVATIVES AS NOVEL SOS1 INHIBITORS” (BAYER AKTIENGESELLSCHAFT, priority 2021, published 2024).
